Columns and labels:
[1] = tested on: patients with postmenopausal osteoporosis; experiment: Suppression of biochemical markers of bone turnover in the same trial; assay type: in vivo, human; settings: throughout the 6 and 12 month dosing intervals
Procedure: (§1) This was a dose and dose regimen-finding 12 month trial of iv zoledronic acid in patients with postmenopausal osteoporosis. Three hundred and fifty one patients were randomized to six study arms. Patients who had recent exposure to bone active drugs, e.g. bisphosphonates, estrogen, calcitonin, raloxifene, or a history of metabolic bone diseases were excluded. All patients were evaluated at baseline and in 3-monthly visits. Zoledronic acid or placebo was administered as a bolus iv injection into a peripheral vein over 5 minutes at every visit.
Additionally, the degree and duration of suppression of biochemical markers of bone turnover—parathyroid hormone (PTH), bone specific alkaline phosphatase (BSAP), serum C-telopeptide (CTX), serum osteocalcin, urine N-telopeptide (NTX)/creatinine ratio, urine deoxypyridinoline (d-pyd)/creatinine ratio, urine pyridinoline (pyd)/creatinine ratio—was obtained every 3 months and measured in a central laboratory.
(§2) • Placebo • 0.25 mg zoledronic acid every 3 months • 0.5 mg zoledronic acid every 3 months • 1.0 mg zoledronic acid every 3 months • 2.0 mg zoledronic acid every 6 months • 4.0 mg zoledronic acid every 12 months

[2] = tested on: patients with postmenopausal osteoporosis; experiment: 12 month dose-ranging trial of iv zoledronic acid: percent change from baseline in bone mineral density (DEXA) versus placebo; assay type: in vivo, human; settings: for Difference versus placebo for percent change from baseline in bone mineral density of the lumbar spine; postero anterior (L1-L4): at 12 months, ITT population
Text: “A Multinational, Randomized, Double-Blind, Placebo-Controlled, Parallel-Group, Dose-Ranging, Safety and Efficacy Trial With Intravenous Bolus Injections of Zoledronate In the Treatment of Postmenopausal Osteoporosis”
as §1
Efficacy was ascertained by measurement of percent change from baseline in bone mineral density (BMD) measured by dual energy X-ray absorptiometry (DEXA) as compared to placebo, at 6, 9, and 12 months.
as §2

O=P(O)(O)C(O)(Cn1ccnc1)P(=O)(O)O [zoledronate, 2-(imidazol-1yl)-1-hydroxyethane-1,1-diphosphonic acid]
Suppression of biochemical markers of bone formation and bone resorption [1]: suppression of bone turnover to the pre-menopausal level
Difference versus placebo for percent change from baseline in bone mineral density of the lumbar spine; postero anterior (L1-L4) ([2]; 1 × 4.0 mg (4.0 mg iv every 12 months)): 4.6%
Difference versus placebo for percent change from baseline in bone mineral density of the lumbar spine; postero anterior (L1-L4) ([2]; 2 × 2.0 mg (2.0 mg iv every 6 months)): 4.2%
Difference versus placebo for percent change from baseline in bone mineral density of the lumbar spine; postero anterior (L1-L4) ([2]; 4 × 0.25 mg (0.25 mg iv every 3 months)): 5.1%
Difference versus placebo for percent change from baseline in bone mineral density of the lumbar spine; postero anterior (L1-L4) ([2]; 4 × 0.5 mg (0.5 mg iv every 3 months)): 4.9%
Difference versus placebo for percent change from baseline in bone mineral density of the lumbar spine; postero anterior (L1-L4) ([2]; 4 × 1.0 mg (1.0 mg iv every 3 months)): 4.5%
percent change from baseline in BMD compared with placebo ([2]; all treatment arms, 12 month results): significantly (p<0.001) greater than placebo
Bone mineral density compared to placebo ([2]; at the spine, hip, distal radius, and total body): increased compared to placebo
bone mass increase (BMD data) ([2]; dose administration as infrequent as every 6 or 12 months): statistically significant and medically relevant bone mass increase
